This is an account of results in patent US20260048047A1, “SMALL-MOLECULE ACTIVATORS OF MYCOBACTERIUM TUBERCULOSIS ADENYLYL CYCLASE” (priority 2022, published 2026).

Values after ≈ are worked out from the molar mass of the structure shown. “Also recorded” adds a separate entry of the source. Like-named read-outs stand apart in the source and are kept apart here.

In one data set the test system is Mtb in macrophages. Description: Inhibition of Mtb replication in macrophages (intramacrophage EC50). The format is cell-based, Mycobacterium tuberculosis. To be noted: Mycobacterium tuberculosis, Macrophage; read-out: EC50, inhibition of Mtb replication in macrophages.
The next data set relates to M. tuberculosis. Description: Extracellular activity against M. tuberculosis in cholesterol media (Alamar Blue reduction assay). The note with it: Mycobacterium tuberculosis; read-out: EC50, inhibition of Mtb growth in cholesterol media. Format: cell-based, Mycobacterium tuberculosis.
Data set [1] deals with Mtb. Briefly: Mtb growth inhibition in standard rich growth media (7H9 OADC) or acetate media. Format: cell-based, Mycobacterium tuberculosis. To be noted: media containing acetate.
Data set [2] is described as follows: Plasma exposure over the cholesterol-media EC50 after oral dosing in mice. Format: in vivo.
Another data set concerns the target T1, Rv1625c (Mycobacterium tuberculosis, UniProt P9WQ35).
T1 construct: endogenous in cells; host or cells: whole Mycobacterium tuberculosis (WT; CompFull = ΔRv1625c complemented with the entire rv1625c gene)
T1 sequence (P9WQ35 1-443): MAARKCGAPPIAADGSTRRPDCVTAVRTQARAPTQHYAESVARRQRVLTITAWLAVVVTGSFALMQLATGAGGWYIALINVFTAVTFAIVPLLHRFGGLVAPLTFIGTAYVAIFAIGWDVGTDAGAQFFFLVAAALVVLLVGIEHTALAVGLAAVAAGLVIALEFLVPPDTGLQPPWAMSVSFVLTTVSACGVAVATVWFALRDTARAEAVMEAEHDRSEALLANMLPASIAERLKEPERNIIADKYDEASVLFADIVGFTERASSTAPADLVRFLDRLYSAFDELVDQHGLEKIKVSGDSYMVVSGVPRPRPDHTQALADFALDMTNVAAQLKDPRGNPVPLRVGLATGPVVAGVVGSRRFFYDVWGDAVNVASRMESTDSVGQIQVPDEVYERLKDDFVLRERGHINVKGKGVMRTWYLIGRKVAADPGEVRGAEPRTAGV
The format is cell-based.

Data set [3] deals with Mtb cholesterol degradation. Description: Catabolic release of 14CO2 from radiolabelled lipid by Mtb. The format is cell-based, Mycobacterium tuberculosis. On the procedure:
Because V-59 impairs growth of Mtb in cholesterol media, whether using V-59 to chemically activate Rv1625c inhibits the bacterium's ability to break down cholesterol was tested. When Mtb degrades the A-ring of [4-^14C]-cholesterol, [1-^14C]-pyruvate is released; subsequently, pyruvate dehydrogenase activity mediates the conversion of [1-^14C]-pyruvate into acetyl-CoA and ^14CO2. Therefore, to quantify cholesterol degradation in Mtb, ^14CO2 released following [4-^14C]-cholesterol breakdown by the bacteria was captured.

The subject of another data set is prpD'::GFP reporter. The format is cell-based, Mycobacterium tuberculosis. The note with it: V-59 10 μM.
In data set [4] the test system is Mtb. Format: in vivo, BALB/c mice. To be noted: for Reduction in lung CFUs: mouse, in vivo.
The test system of data set [5] is Mtb. Briefly: Chronic Mtb infection in C3HeB/FeJ mice. The format is in vivo. The note with it: infected and treated in the same manner.
A further data set relates to mammalian AC enzymes. The note with it: human cell lines, 10 μM.
A further data set addresses hERG (Homo sapiens, UniProt Q12809). Briefly: in vitro. Format: biochemical. The note with it: Table S2.
The nature of the next data set: Solubility at pH 6.8. The note with it: pH 6.8, aqueous buffer.
A short description of the next data set: Extraction ratio, mouse. To be noted: Table S2.
The nature of the next data set: Extraction ratio, human. The note with it: Table S2.
The nature of data set [6]: Mouse plasma protein binding.
Data set [7] deals with Mtb H37Rv (Mtb-lux) inside PMA-differentiated THP-1 cells. Description: Intramacrophage activity in THP-1 cells. Format: cell-based, Mycobacterium tuberculosis.
The subject of data set [8] is Mtb inside J774.1 macrophages. Briefly: Intramacrophage activity in J774.1 cells. Format: cell-based, Mycobacterium tuberculosis.
The test system of another data set is Mtb H37Rv. Description: MIC determination in Mtb H37Rv (MABA, 7H12-Cholesterol media). Format: cell-based. To be noted: Mycobacterium tuberculosis, two batches. On the procedure: MIC Determination in Mtb H37Rv
The minimum inhibitory concentration (MIC) of the test compounds were determined using ten-point, two-fold serial dilutions in 7H12-Cholesterol media using Microdilution Alamar Blue Assay (MABA) as previously described (Cho et al., 2015; VanderVen et al., 2015). Briefly, Mycobacterial cells at the mid-logarithmic phase of growth were diluted (1:1,000). Twenty μl of this dilution was added to each well containing 2-fold serially diluted test compounds and incubated for 7 days at 37° C. Alamar Blue (Invitrogen) reagent (4 μL per well) was added along with 20% Tween 80 (2.5 μL per well, Sigma Aldrich) to evaluate bacterial cell viability. Plates were read 24 h after adding Alamar Blue at absorbance 570 nm with a reference wavelength of 600 nm.

For data set [9], the system named is Mtb. Briefly: Checkerboard combination assay with known anti-TB drugs (FIC index). Format: cell-based, Mycobacterium tuberculosis. To be noted: nine anti-TB drugs. From the text:
Combination Testing of mCLB073 with Known Anti-TB Drugs
To test for interactions between mCLB073 and known anti-tubercular drugs in combination in an in vitro growth assay, a checkerboard assay to test for interactions between mCLB073 and drugs with known anti-TB activity using Alamar Blue as a viability marker (Lechartier et al., 2012) was used. Drug combinations were categorized based on fractional inhibitory concentration (FIC) index of FIC≤0.5 as synergistic, 0.5<FIC≤1 as additive, 1<FIC≤4 as no interaction and FIC ≥4 as antagonism (Hall et al., 1983).
Performed were synergy studies between mCLB073 and nine anti-TB drugs: Moxifloxacin (MOXI), Isoniazid (INH), Rifampicin (RIF), Streptomycin (STR), Levofloxacin (LEV), Linezolid (LIN), Ethionamide (ETH), Pretomanid (PA-824), and Bedaquiline (BDQ). A checkerboard titration in a microtiter plate was used as previously described (Hsieh et al., 1993).

For data set [10], the system named is non-replicating M. tuberculosis. Description: Hu Coats 100-day old culture model. To be noted: for Cidal activity compared to the NixTB combination: with Pretomanid and Bedaquiline.
A further data set concerns Mtb H37Ra. The note with it: read-out: IC50 against Mtb H37Ra in cholesterol media.

Chain of hERG (Q12809 whole entry): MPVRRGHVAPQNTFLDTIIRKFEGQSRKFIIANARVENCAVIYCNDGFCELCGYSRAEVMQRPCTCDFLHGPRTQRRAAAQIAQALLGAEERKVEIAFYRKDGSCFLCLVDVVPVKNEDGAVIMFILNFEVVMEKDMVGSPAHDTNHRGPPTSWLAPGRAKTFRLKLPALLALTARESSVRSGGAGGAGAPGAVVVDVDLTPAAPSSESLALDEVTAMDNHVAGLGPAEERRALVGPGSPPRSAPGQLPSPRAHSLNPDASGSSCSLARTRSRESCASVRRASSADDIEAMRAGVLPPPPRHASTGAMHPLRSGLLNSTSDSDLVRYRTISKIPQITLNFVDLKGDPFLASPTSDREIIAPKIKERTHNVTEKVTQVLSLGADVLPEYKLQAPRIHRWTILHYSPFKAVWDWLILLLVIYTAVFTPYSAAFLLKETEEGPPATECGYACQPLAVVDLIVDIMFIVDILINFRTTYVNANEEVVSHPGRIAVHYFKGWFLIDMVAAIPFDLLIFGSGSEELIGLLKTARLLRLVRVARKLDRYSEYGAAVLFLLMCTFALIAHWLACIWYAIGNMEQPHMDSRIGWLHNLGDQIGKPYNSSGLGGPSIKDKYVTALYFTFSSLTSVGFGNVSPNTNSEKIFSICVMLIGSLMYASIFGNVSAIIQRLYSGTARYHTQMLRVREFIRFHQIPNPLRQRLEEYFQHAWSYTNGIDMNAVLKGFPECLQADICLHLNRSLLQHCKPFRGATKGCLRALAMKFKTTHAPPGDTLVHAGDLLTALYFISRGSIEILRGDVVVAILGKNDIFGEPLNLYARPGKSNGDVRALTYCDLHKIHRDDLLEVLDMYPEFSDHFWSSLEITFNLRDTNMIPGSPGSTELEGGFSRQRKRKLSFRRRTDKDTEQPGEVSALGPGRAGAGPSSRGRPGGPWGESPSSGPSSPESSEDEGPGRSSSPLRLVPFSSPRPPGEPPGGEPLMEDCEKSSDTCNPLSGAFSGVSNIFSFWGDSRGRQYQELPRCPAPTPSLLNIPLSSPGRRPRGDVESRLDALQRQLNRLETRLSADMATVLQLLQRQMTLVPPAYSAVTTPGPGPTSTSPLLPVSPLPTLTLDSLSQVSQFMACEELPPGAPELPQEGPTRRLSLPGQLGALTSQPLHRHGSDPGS

For the molecule `Cc1nonc1CC(=O)N1CCC(n2nnc(-c3ccc(F)cc3)n2)CC1` [Compound V-59, 1-(4-(5-(4-fluorophenyl)-2H-tetrazol-2-yl)piperidin-1-yl)-2-(4-methyl-1,2,5-oxadiazol-3-yl)ethan-1-one], the EC50 (usually the midpoint of the concentration-response curve) in the data set on Mtb in macrophages amounted to 300 nM; with M. tuberculosis, 700 nM. Further, the “Inhibition of Mtb growth in acetate media or standard rich growth media” value in the data set on Mtb [1] is reported as “not”. Further, the “Plasma exposure above the EC50 (cholesterol media)” value in [2] (oral dosing in mice at 20 mg/kg) is listed as “approximately 24 hours”. In addition, the “cAMP induction in WT Mtb” value at Rv1625c was roughly 70 fold. At Rv1625c (CompFull strain), the “cAMP induction in CompFull Mtb” value is on record as roughly 140 fold. For the same molecule, in [3] (WT Mtb), the “Decrease of 14CO2 release from [4-14C]-cholesterol” value is reported as roughly 89%. Besides, the “Effect on 14CO2 release from [U-14C]-palmitate” value in [3] (fatty acid breakdown) is reported as “no measurable effect”. Besides, the “Decrease of prpD'::GFP signal in CompFull” value in the data set with prpD'::GFP reporter (CompFull strain) was roughly 90%. Also, in the data set on prpD'::GFP reporter (WT), the “Decrease of prpD'::GFP signal in WT” value was roughly 50%. In addition, the “Reduction of extent of lung inflammation” value in the data set on Mtb [4] (BALB/c, 50 mg/kg oral once-daily, weeks 4-8) is on record as roughly 50%. Also, the “Reduction in lung CFUs” value with Mtb [4] (po, 50 mg/kg) is recorded as roughly 0.4 log10; in the data set with Mtb [5], roughly 0.5 log10. Moreover, in the data set on mammalian AC enzymes, the “Activation of ACs in mammalian cells” value is on record as “No evidence”.

As for `Cn1ncnc1CC(=O)N1[C@@H]2CC(c3nc(-c4ccc(Cl)c(Cl)c4)no3)C[C@H]1C2` (stereo partly shown) [drawing 4], on hERG, the midpoint of inhibition, the IC50, lay at 11800 nM. Moreover, the fraction unbound (commonly the share of the substance not bound to proteins or other matrix) in the data set “Caseum binding” is less than 0.0001; in data set [6] it was 0.022. Further, the solubility – broadly, the concentration that dissolves in the medium under given conditions – in the data set “Solubility at pH 6.8” was found to be 94 µM (≈ 40.7 µg/mL). In addition, in the data set “Extraction ratio, mouse”, the “ER mouse/human: mouse” value is reported as <0.3/<0.3. The “ER mouse/human: human” value in the data set “Extraction ratio, human” was <0.3/<0.3.

As for `Cn1ncnc1CC(=O)N1CCC(c2nc(-c3ccc(Cl)c(Cl)c3)no2)CC1` [mCLB073, 1-(4-(3-(3,4-dichlorophenyl)-1,2,4-oxadiazol-5-yl)-1-piperidinyl)-2-(2-methyl-2H-1,2,4-triazol-3-yl)-1-ethanone], the “Plasma exposure over the EC50 identified in cholesterol media” value in data set [2] (dosed orally in mice) was “at least 24 hours”. Further, in the data set on Mtb [4] (BALB/c, 30 mg/kg oral once-daily, weeks 4-8), the “Decrease of extent of lung pathology” value is given as roughly 45%. In addition, the “Lung bacterial burden when added to sub-optimal rifampicin” value in the data set on Mtb [4] (BALB/c, 30 mg/kg plus sub-optimal dose of rifampicin) is reported as “did not increase the bacterial burden”. Moreover, the “Reduction in lung CFUs” value with Mtb [4] (5 mg/kg) is roughly 0.4 log10; in the data set with Mtb [4] (po, 30 mg/kg), roughly 0.4 log10. In addition, the “Sinf (maximum inhibition), THP-1” value in data set [7] was found to be 76.8%. The concentration for a half-maximal effect (EC50) in data set [7] (Mycobacterium tuberculosis, H37RV, THP-1, 72 h, luminescence, day 3, read-out: EC50, growth of Mtb inside PMA-differentiated THP-1 cells) worked out at 40 nM; in data set [8] (Mycobacterium tuberculosis, J774.1, 72 h, luminescence, day 3, read-out: EC50, growth of Mtb inside J774.1 macrophages), 50 nM. The “Sinf (maximum inhibition), J774.1” value in data set [8] is listed as 42.1%. Besides, the MIC90 (in general, an inhibitory concentration at the 90% level, which refers to growth in some studies and to a panel of isolates in others) in the data set on Mtb H37Rv stood at 0.28 µM (≈ 0.118 µg/mL). Moreover, the “Antagonism with known anti-TB drugs” value with Mtb [9] was “did not display any antagonism”. The “Efficacy when tested individually” value in data set [10] (100-day-old culture, alone) is given as “no efficacy”. In addition, the “Activity in combination versus NixTB combination” value in [10] (Pretomanid 20.87 μM, Bedaquiline 2.25 μM, test drug 20, 8, 1 μM) was “comparable”. Also, in data set [10] (added to PB, 50 μM), the “CFU reduction versus PB” value is reported as “superior CFU reduction”. Also, the “Cidal activity compared to the NixTB combination” value in data set [10] (50 μM) is listed as “complete sterilization; also recorded: two log units better”; in data set [10] (all compounds at 20 μM) it was “one-log improvement”. In addition, the IC50 (in general, the concentration that inhibits the measured activity by half) in the data set on Mtb H37Ra worked out at 30.1 nM.
